Reference: ChEMBL document CHEMBL5579851, “Synthesis and antifungal evaluation of novel triazole derivatives bearing a pyrazole-methoxyl moiety” (Eur J Med Chem, 2024)
Converted amounts (≈) assume the structure as drawn. The source made the active and inactive calls. The calls are words filed in the database; no cut-off is given here.

Experiments:
[1] = test system: Saccharomyces cerevisiae; assay: Antifungal activity against recombinant Saccharomyces cerevisiae Y2721 overexpressing CpErg11/CpCpr assessed as inhibition of fungal growth incubated for 48 hrs by CLSI based broth microdilution assay; type: functional
[2] = target: T1, Lanosterol 14-alpha demethylase (Candida albicans (strain SC5314 / ATCC MYA-2876) (Yeast), UniProt P10613); assay: Inhibition of CYP51 in Candida albicans SC5314 assessed as eburicol level at 0.0625 ug/ml after 8 hrs by GC-MS analysis relative to control; design: scale not given: the % may be the effect or the level left; conditions: at 0.0625 µg/mL
[3] = test system: Pichia kudriavzevii; assay: Antifungal activity against Candida krusei 4996 assessed as inhibition of fungal growth incubated for 48 hrs by CLSI based broth microdilution assay; type: functional
[4] = test system: Saccharomyces cerevisiae; assay: Antifungal activity against recombinant Saccharomyces cerevisiae Y2765 overexpressing CauMdr1 assessed as inhibition of fungal growth incubated for 48 hrs by CLSI based broth microdilution assay; type: functional
[5] = test system: Saccharomyces cerevisiae; assay: Antifungal activity against recombinant Saccharomyces cerevisiae Y2716 overexpressing CpErg11 Y132F mutant/ CpCpr assessed as inhibition of fungal growth incubated for 48 hrs by CLSI based broth microdilution assay; type: functional
[6] = test system: Candida albicans; assay: Antibiofilm activity against Candida albicans SC5314 assessed as inhibition of biofilm formation at 64 ug/mL incubated for 24 hrs by XTT assay relative to control; type: functional
[7] = test system: Candida albicans; assay: Antifungal activity against Candida albicans SC5314 assessed as inhibition of fungal growth incubated for 48 hrs by CLSI based broth microdilution assay; type: functional
[8] = test system: Candida albicans; assay: Antifungal activity against Candida albicans SC5314 assessed as inhibition of fungal growth at 0.125 ug/ml after 48 hrs by TECAN plate reader analysis relative to control; type: functional
[9] = test system: Saccharomyces cerevisiae; assay: Antifungal activity against recombinant Saccharomyces cerevisiae Y2766 overexpressing CauCdr1 assessed as inhibition of fungal growth incubated for 48 hrs by CLSI based broth microdilution assay; type: functional
[10] = target: T1, Lanosterol 14-alpha demethylase; assay: Inhibition of CYP51 in Candida albicans SC5314 assessed as obtusifoliol level at 0.0625 ug/ml after 8 hrs by GC-MS analysis relative to control; design: scale not given: the % may be the effect or the level left; conditions: at 0.0625 µg/mL
[11] = test system: Saccharomyces cerevisiae; assay: Antifungal activity against recombinant Saccharomyces cerevisiae Y2459 overexpressing CaErg11/CaCpr assessed as inhibition of fungal growth incubated for 48 hrs by CLSI based broth microdilution assay; type: functional
[12] = test system: Nakaseomyces glabratus; assay: Antifungal activity against Candida glabrata 537 assessed as inhibition of fungal growth at 2 ug/ml measured up to 48 hrs by TECAN plate reader analysis; type: functional, organism-based; conditions: dose 2.0 µg/ml
[13] = test system: Candida albicans; assay: Antibiofilm activity against Candida albicans SC5314 assessed as increase in matured biofilm distruption at 64 ug/ml incubated for 24 hrs by XTT assay relative to control; type: functional; conditions: dose 64 µg/ml
[14] = test system: Candida albicans; assay: Antifungal activity against Candida albicans 10231 assessed as inhibition of fungal growth incubated for 48 hrs by CLSI based broth microdilution assay; type: functional
[15] = test system: Saccharomyces cerevisiae; assay: Antifungal activity against recombinant Saccharomyces cerevisiae Y2768 overexpressing CauErg11 T132F mutant assessed as inhibition of fungal growth incubated for 48 hrs by CLSI based broth microdilution assay; type: functional
[16] = test system: Candida parapsilosis; assay: Antifungal activity against Candida parapsilosis 22019 assessed as inhibition of fungal growth incubated for 48 hrs by CLSI based broth microdilution assay; type: functional; conditions: Lodderomyces parapsilosis
[17] = test system: Candida albicans; assay: Antifungal activity against Candida albicans SC5314 assessed as inhibition of hyphae formation at 0.625 ug/ml after 3 hrs by inverted microscopic analysis relative to control; type: functional
[18] = test system: [Candida] auris; assay: Antifungal activity against fluconazole-resistant Candida auris 919 assessed as inhibition of fungal growth incubated for 48 hrs by CLSI based broth microdilution assay; type: functional; conditions: Candidozyma auris
[19] = test system: Candida tropicalis; assay: Potency index, ratio of ravuconazole MIC to test compound MIC for antifungal activity against Candida tropicalis 8915 assessed as inhibition of fungal growth incubated for 48 hrs by CLSI based broth microdilution assay; type: functional
[20] = test system: Cell membrane; assay: Induction of membrane permeabilization in Candida albicans SC5314 assessed as increase in fluorescence at 0.0625 to 0.5 ug/ml incubated for 8 hrs by propidium iodide staining based fluorescence microscopic analysis; conditions: dose 0.0625-0.5 µg/ml
[21] = test system: Saccharomyces cerevisiae; assay: Selectivity index, ratio of MIC for antifungal activity against recombinant Saccharomyces cerevisiae Y525 overexpressing CaMdr1 to MIC for antifungal activity against recombinant Saccharomyces cerevisiae Y2411 overexpressing ScErg11; type: functional
[22] = test system: Candida tropicalis; assay: Potency index, ratio of fluconazole MIC to test compound MIC for antifungal activity against Candida tropicalis 8915 assessed as inhibition of fungal growth incubated for 48 hrs by CLSI based broth microdilution assay; type: functional
[23] = test system: Saccharomyces cerevisiae; assay: Antifungal activity against recombinant Saccharomyces cerevisiae Y2301 overexpressing ScErg11 Y140F mutant assessed as inhibition of fungal growth incubated for 48 hrs by CLSI based broth microdilution assay; type: functional
[24] = test system: Candida albicans; assay: Antifungal activity against fluconazole-resistant Candida albicans 901 assessed as inhibition of fungal growth incubated for 48 hrs by CLSI based broth microdilution assay; type: functional
[25] = test system: Candida albicans; assay: Antibiofilm activity against Candida albicans SC5314 assessed as increase in matured biofilm distruption incubated for 24 hrs by XTT assay; type: functional, organism-based; conditions: dose 0.25-64 µg/ml
[26] = test system: Saccharomyces cerevisiae; assay: Antifungal activity against recombinant Saccharomyces cerevisiae Y2767 overexpressing CauErg11 assessed as inhibition of fungal growth incubated for 48 hrs by CLSI based broth microdilution assay; type: functional
[27] = test system: Saccharomyces cerevisiae; assay: Antifungal activity against recombinant Saccharomyces cerevisiae Y2411 overexpressing ScErg11 assessed as inhibition of fungal growth incubated for 48 hrs by CLSI based broth microdilution assay; type: functional
[28] = test system: Saccharomyces cerevisiae; assay: Antifungal activity against recombinant Saccharomyces cerevisiae Y2769 overexpressing CauErg11 K143R mutant assessed as inhibition of fungal growth incubated for 48 hrs by CLSI based broth microdilution assay; type: functional
[29] = test system: Candida parapsilosis; assay: Antifungal activity against Candida parapsilosis 22019 assessed as inhibition of fungal growth at 0.125 ug/ml measured up to 48 hrs by TECAN plate reader analysis; type: functional, organism-based; conditions: dose 0.125 µg/ml
[30] = Cytotoxicity against HUVEC cells assessed as cell viability at 128 ug/ml incubated for 24 hrs by CCK-8 assay relative to control; type: toxicity, cell-based; conditions: human, at 128 µg/mL, read-out: Activity
[31] = test system: Candida albicans; assay: Antifungal activity against fluconazole-resistant Candida albicans 904 assessed as inhibition of fungal growth incubated for 48 hrs by CLSI based broth microdilution assay; type: functional
[32] = test system: Saccharomyces cerevisiae; assay: Antifungal activity against recombinant Saccharomyces cerevisiae Y2711 overexpressing CnErg11 assessed as inhibition of fungal growth incubated for 48 hrs by CLSI based broth microdilution assay; type: functional
[33] = test system: Saccharomyces cerevisiae; assay: Antifungal activity against recombinant Saccharomyces cerevisiae Y2462 overexpressing ScErg11/ScNcp1 assessed as inhibition of fungal growth incubated for 48 hrs by CLSI based broth microdilution assay; type: functional
[34] = test system: Saccharomyces cerevisiae; assay: Antifungal activity against recombinant Saccharomyces cerevisiae Y525 overexpressing CaMdr1 assessed as inhibition of fungal growth incubated for 48 hrs by CLSI based broth microdilution assay; type: functional
[35] = test system: [Candida] auris; assay: Antifungal activity against fluconazole-resistant Candida auris 891 assessed as inhibition of fungal growth incubated for 48 hrs by CLSI based broth microdilution assay; type: functional; conditions: Candidozyma auris

T1 sequence (P10613 whole entry): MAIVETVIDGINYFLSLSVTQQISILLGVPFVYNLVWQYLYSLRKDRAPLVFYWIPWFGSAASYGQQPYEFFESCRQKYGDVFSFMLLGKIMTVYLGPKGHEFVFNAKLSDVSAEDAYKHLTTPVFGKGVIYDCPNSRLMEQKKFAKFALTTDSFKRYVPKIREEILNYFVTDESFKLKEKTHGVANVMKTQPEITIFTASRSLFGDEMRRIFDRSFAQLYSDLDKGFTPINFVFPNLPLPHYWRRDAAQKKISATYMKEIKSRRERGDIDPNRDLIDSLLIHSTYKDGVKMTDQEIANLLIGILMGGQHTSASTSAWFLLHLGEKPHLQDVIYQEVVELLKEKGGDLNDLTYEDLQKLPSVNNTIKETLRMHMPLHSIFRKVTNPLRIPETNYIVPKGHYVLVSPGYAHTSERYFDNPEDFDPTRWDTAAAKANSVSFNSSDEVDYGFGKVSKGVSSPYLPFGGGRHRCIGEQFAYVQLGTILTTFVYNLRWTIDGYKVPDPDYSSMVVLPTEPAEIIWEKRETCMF

With `C[C@@H](OCc1ccn(Cc2ccc(Cl)cc2)n1)[C@](O)(Cn1cncn1)c1ccc(F)cc1F` the MIC [1] was 0.016 µg/mL, the Activity [2] was ~ 20% and the MIC [3] was 2 µg/mL (≈ 4.22 µM). For the same compound, the MIC [4] was 0.063 µg/mL, the MIC [5] was 0.016 µg/mL and the inhibition at 64 µg/mL [6] was > 55%. The MIC [7] was ≤ 0.125 µg/mL, the inhibition at 0.125 µg/mL [8] was 100% and the MIC [9] was 2 µg/mL. The Activity [10] was ~ 20%, the MIC [11] was 0.008 µg/mL and the inhibition [12] was “inactive”. For the same compound, the Activity [13] was 57.3%, the MIC [14] was ≤ 0.125 µg/mL and the MIC [15] was 0.0313 µg/mL. The MIC [16] was 0.25 µg/mL (≈ 0.528 µM), the inhibition at 0.625 µg/mL [17] was 100% and the MIC [18] was 8 µg/mL (≈ 16.9 µM). For the same compound, the Ratio [19] was 32, the Activity [20] was “Active” and the Ratio [21] was 16. It also gave a Ratio [22] of 256, an MIC [23] of 0.008 µg/mL and an MIC [24] of 16 µg/mL (≈ 33.8 µM). For the same compound, the Activity [25] was “Dose-Dependent Effect”, the MIC [26] was 0.008 µg/mL and the MIC [27] was 0.008 µg/mL. The MIC [28] was 0.008 µg/mL, the inhibition [29] was “Active” and the viability at 24 h, 128 ug/ml [30] was 64.5%. The MIC [31] was 8 µg/mL (≈ 16.9 µM), the MIC [32] was 0.008 µg/mL and the MIC [33] was 0.0313 µg/mL. For the same compound, the MIC [34] was 0.125 µg/mL and the MIC [35] was 8 µg/mL (≈ 16.9 µM).
